Literature values in patent US7052486B2, “Method and system for treating depressive and anxiety disorders” (Medtronic, Inc., priority 2003, dated 2006).

Key:
depression = conditions: administered parenterally (IV or SQ)
refractory depression = conditions: single intrathecal bolus
[1] = tested on: refractory obsessive-compulsive disorder (OCD); conditions: chronic parenteral use

Compound	response in depression (depression)	patients successfully treated for refractory depression (refractory depression)	time to rapid and dramatic improvement in the symptoms of severe depression (refractory depression) [h]	OCD behaviors [1]	symptoms of depression as measured by the Hamilton scale [1]
NC(=O)[C@@H]1CCCN1C(=O)[C@H](Cc1cnc[nH]1)NC(=O)[C@@H]1CCC(=O)N1 [TRH, Thyrotropin-releasing hormone]	unpredictable responses	7 out of 10	< 24		
CNS(=O)(=O)Cc1ccc2[nH]cc(CCN(C)C)c2c1 [sumatriptan]				only modest reductions	significant improvements
